Laboratory results published in article PMC6811774, “Potent, selective, and subunit‐dependent activation of TRPC5 channels by a xanthine derivative” (British Journal of Pharmacology, 2019).

What was measured:
[1] = biological target: T1, native TRPC1:C4 channels in A498 cells (Homo sapiens, UniProt P48995+Q9UBN4); test: [Ca2+]i measurement in A498 renal carcinoma cells; format: cell-based
T1 construct: A498 renal carcinoma cells, which endogenously express TRPC1:C4 channels; endogenous in cells; host or cells: A498
T1 sequence (P48995 whole entry, one chain of several): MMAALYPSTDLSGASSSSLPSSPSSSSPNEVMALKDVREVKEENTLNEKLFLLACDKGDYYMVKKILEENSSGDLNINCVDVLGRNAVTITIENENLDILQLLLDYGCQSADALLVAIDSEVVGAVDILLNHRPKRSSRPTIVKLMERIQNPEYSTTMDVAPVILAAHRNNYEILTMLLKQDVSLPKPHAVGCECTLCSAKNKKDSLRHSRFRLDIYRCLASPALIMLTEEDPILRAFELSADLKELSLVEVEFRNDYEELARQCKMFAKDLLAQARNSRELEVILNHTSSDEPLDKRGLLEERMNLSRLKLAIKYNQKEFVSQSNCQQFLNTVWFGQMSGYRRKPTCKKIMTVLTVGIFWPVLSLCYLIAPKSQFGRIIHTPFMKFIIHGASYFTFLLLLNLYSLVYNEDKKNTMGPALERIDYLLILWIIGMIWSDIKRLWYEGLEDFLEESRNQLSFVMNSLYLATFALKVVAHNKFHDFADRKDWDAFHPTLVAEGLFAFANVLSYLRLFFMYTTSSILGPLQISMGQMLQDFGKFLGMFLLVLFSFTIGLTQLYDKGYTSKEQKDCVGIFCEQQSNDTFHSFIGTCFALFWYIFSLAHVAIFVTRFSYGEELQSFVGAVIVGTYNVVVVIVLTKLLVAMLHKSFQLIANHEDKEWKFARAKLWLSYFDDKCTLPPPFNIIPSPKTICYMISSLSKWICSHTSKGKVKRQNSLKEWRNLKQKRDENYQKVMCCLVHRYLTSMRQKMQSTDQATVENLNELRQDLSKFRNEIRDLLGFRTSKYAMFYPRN

WT HEK 293 cells = test: Whole-cell patch-clamp in WT HEK 293 cells; format: cell-based, human; details: AM237 1–100 nM; EA 30 nM
Experimental: For electrophysiology experiments, cells were plated at a low density of 20–30% onto round or square glass coverslips (13 mm diameter or 5 × 5 mm), and TRPC expression in HEK T‐REx was induced with 1 μg·ml^−1 tetracycline 24 hr before experimentation. Experiments were carried out at room temperature. Extracellular solution consisted of SBS. Patch‐clamp recordings were performed in whole‐cell mode (Figure S7) and in excised outside‐out patch mode under voltage clamp at room temperature using 2–4 MΩ patch pipettes fabricated from borosilicate glass capillaries with an outside diameter of 1 mm and an inside diameter of 0.58 mm (Harvard Apparatus). The voltage protocol comprised voltage ramps applied from −100 to +100 mV every 10 s from a holding potential of 0 mV. […] All solutions were filtered using a 0.2 μm filter (Sartorius, UK).

TRPC6 = biological target: T2, TRPC6 (Homo sapiens, UniProt Q9Y210); test: [Ca2+]i selectivity assay, WT HEK 293 cells transiently transfected with hTRPC6, OAG activation; format: cell-based; details: 300 nM AM237; 100 μM OAG
T2 construct: expressed in transfected cells; host or cells: WT HEK 293 (transient, jetPRIME; pcDNA3)
T2 sequence (Q9Y210 1-931): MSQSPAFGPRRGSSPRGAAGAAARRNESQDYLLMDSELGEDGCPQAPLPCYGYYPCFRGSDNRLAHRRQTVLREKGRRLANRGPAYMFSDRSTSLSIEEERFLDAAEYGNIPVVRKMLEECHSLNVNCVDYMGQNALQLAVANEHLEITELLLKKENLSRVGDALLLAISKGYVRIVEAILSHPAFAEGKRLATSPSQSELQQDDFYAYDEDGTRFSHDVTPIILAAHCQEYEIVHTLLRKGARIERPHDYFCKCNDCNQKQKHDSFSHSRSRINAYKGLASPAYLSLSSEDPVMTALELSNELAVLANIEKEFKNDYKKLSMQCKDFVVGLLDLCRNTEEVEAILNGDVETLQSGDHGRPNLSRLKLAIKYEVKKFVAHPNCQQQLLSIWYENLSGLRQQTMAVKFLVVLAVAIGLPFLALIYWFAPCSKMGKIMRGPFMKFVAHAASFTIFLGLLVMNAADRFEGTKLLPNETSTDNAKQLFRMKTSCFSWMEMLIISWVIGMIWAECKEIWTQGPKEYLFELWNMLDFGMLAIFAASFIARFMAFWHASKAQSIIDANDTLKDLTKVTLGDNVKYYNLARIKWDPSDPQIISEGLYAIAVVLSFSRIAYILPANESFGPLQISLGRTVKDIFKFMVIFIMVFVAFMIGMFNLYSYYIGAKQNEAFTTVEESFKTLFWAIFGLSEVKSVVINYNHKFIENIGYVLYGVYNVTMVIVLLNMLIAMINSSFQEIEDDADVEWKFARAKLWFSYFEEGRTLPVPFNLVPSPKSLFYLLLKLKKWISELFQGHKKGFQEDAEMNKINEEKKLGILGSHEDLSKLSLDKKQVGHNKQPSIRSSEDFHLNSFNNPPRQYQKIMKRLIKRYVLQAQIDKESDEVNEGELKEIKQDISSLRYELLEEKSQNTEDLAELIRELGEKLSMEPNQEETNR

TRPC4 channels = biological target: T3, TRPC4 channels (Homo sapiens, UniProt Q9UBN4); test: Excised outside-out patch-clamp, HEK 293 cells transiently expressing hTRPC4; format: cell-based; details: 30 nM EA; at 3 to 100 nM AM237
T3 construct: expressed in transfected cells; host or cells: HEK 293 (transient)
T3 sequence (Q9UBN4 1-977): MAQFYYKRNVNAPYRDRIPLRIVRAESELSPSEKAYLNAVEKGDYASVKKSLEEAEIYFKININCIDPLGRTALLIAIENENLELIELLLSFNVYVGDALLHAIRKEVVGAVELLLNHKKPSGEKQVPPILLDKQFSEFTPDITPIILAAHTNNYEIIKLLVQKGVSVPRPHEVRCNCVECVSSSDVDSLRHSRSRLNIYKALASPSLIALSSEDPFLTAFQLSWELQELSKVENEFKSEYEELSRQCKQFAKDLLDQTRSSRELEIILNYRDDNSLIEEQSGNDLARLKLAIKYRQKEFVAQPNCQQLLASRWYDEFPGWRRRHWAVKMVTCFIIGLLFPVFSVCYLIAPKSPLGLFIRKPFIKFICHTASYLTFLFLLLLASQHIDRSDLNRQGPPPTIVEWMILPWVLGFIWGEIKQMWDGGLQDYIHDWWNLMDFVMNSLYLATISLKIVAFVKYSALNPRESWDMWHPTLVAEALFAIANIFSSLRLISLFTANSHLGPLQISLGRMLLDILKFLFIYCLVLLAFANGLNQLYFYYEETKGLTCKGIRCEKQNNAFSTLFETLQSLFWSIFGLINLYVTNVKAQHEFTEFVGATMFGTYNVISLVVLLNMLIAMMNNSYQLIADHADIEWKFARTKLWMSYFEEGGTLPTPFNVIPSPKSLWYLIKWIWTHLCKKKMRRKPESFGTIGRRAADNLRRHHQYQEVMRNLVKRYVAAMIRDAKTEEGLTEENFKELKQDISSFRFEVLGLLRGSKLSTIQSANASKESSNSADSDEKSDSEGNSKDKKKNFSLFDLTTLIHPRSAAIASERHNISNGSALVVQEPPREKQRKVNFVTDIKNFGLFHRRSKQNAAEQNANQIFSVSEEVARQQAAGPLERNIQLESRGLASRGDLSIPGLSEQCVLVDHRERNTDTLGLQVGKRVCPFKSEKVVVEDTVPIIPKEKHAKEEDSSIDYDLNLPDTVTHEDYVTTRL
Experimental: For electrophysiology experiments, cells were plated at a low density of 20–30% onto round or square glass coverslips (13 mm diameter or 5 × 5 mm), and TRPC expression in HEK T‐REx was induced with 1 μg·ml^−1 tetracycline 24 hr before experimentation. Experiments were carried out at room temperature. Extracellular solution consisted of SBS. Patch‐clamp recordings were performed in whole‐cell mode (Figure S7) and in excised outside‐out patch mode under voltage clamp at room temperature using 2–4 MΩ patch pipettes fabricated from borosilicate glass capillaries with an outside diameter of 1 mm and an inside diameter of 0.58 mm (Harvard Apparatus). The voltage protocol comprised voltage ramps applied from −100 to +100 mV every 10 s from a holding potential of 0 mV. The patch‐clamp currents were recorded using Axopatch 200B or HEKA EPC‐800 amplifiers, digitized by a Digidata 1440 or PCI6229 (National Instruments Japan, Tokyo, Japan) and recorded to a computer using pCLAMP10 (Molecular Devices) or WinWCPV4.5 (developed by Dr John Dempster, University of Strathclyde, UK). The data were filtered at 1 kHz and analysed offline using Clampfit 10.2 software or WinWCPV4.5 and Origin 9.1 software (OriginLab, Northampton, MA). […]

SMILES: Cn1c(=O)n(CCCO)c(=O)c2c1nc(Oc1ccc(Cl)c(OC(F)(F)F)c1)n2Cc1ccc(Cl)cc1 [AM237]
- Hill slope, inhibition of EA response [1]: -0.99
- Effect of pretreatment on basal [Ca2+]i ([1]; 0.01–10 nM AM237): no effect
- Activation upon acute administration ([Ca2+]i) ([1]; 3-300 nM AM237): lack of activation
- IC50 ([1]; AM237 pretreatment, then EA, read-out: IC50, inhibition of EA-mediated increase in [Ca2+]i): 0.849 nM
- Effect on whole-cell currents at +100 and -100 mV (WT HEK 293 cells): no significant effect
- Activation or inhibition of TRPC6 (TRPC6): no activation or inhibition
- Inhibition of currents induced by EA (TRPC4 channels): full inhibition
